Laboratory results: the kinase profiling compilation of Christmann-Franck et al. (2016)
Each block holds one molecule with its values, some of them ahead of it.

How the values were obtained:
Experiment in all cases: radiometric filter-binding kinase assay, Kinase HotSpot
Conditions in all cases: compound 0.5 µM; ATP 10 µM
MARK1 (human) = MARK1 (human) (UniProt Q9P0L2)
GRK6 (human) = GRK6 (human) (UniProt P43250)
PRKCB1 (human) = PRKCB1 (human) (UniProt P05771)
ULK2 (human) = ULK2 (human) (UniProt Q8IYT8)
TBK1 (human) = TBK1 (human) (UniProt Q9UHD2)
MAPK1 (human) = MAPK1 (human) (UniProt P28482)
FLT1 (human) = FLT1 (human) (UniProt P17948)
PHKG2 (human) = PHKG2 (human) (UniProt P15735)
PLK2 (human) = PLK2 (human) (UniProt Q9NYY3)
PDPK1 (human) = PDPK1 (human) (UniProt O15530)
PIM2 (human) = PIM2 (human) (UniProt Q9P1W9)
TYRO3 (human) = TYRO3 (human) (UniProt Q06418)
EPHB1 (human) = EPHB1 (human) (UniProt P54762)
RPS6KA1 KD1 KD2 (human) = RPS6KA1 KD1 KD2 (human) (UniProt Q15418)
PLK1 (human) = PLK1 (human) (UniProt P53350)
DAPK2 (human) = DAPK2 (human) (UniProt Q9UIK4)
AURKB (human) = AURKB (human) (UniProt Q96GD4)
INSR (human) = INSR (human) (UniProt P06213)
CLK2 (human) = CLK2 (human) (UniProt P49760)
TSSK2 (human) = TSSK2 (human) (UniProt Q96PF2)
GSK3A (human) = GSK3A (human) (UniProt P49840)
PDGFRB (human) = PDGFRB (human) (UniProt P09619)
FYN (human) = FYN (human) (UniProt P06241)
MUSK (human) = MUSK (human) (UniProt O15146)
JAK2 JH1 JH2 (human) = JAK2 JH1 JH2 (human) (UniProt O60674)
MARK2 (human) = MARK2 (human) (UniProt Q7KZI7)
PRKD3 (human) = PRKD3 (human) (UniProt O94806)
INSRR (human) = INSRR (human) (UniProt P14616)
PRKACA (human) = PRKACA (human) (UniProt P17612)
MAPK14 (human) = MAPK14 (human) (UniProt Q16539)
ERBB2 (human) = ERBB2 (human) (UniProt P04626)
MAPKAPK5 (human) = MAPKAPK5 (human) (UniProt Q8IW41)
MAPK12 (human) = MAPK12 (human) (UniProt P53778)
RPS6KB1 (human) = RPS6KB1 (human) (UniProt P23443)
FGFR1 (human) = FGFR1 (human) (UniProt P11362)
AURKA (human) = AURKA (human) (UniProt O14965)
PAK3 (human) = PAK3 (human) (UniProt O75914)
MAPK13 (human) = MAPK13 (human) (UniProt O15264)
PRKCE (human) = PRKCE (human) (UniProt Q02156)
WNK2 (human) = WNK2 (human) (UniProt Q9Y3S1)
MAP3K8 (human) = MAP3K8 (human) (UniProt P41279)
FGFR2 (human) = FGFR2 (human) (UniProt P21802)

MAP3K8 (human), sequence (P41279 whole entry, looked up): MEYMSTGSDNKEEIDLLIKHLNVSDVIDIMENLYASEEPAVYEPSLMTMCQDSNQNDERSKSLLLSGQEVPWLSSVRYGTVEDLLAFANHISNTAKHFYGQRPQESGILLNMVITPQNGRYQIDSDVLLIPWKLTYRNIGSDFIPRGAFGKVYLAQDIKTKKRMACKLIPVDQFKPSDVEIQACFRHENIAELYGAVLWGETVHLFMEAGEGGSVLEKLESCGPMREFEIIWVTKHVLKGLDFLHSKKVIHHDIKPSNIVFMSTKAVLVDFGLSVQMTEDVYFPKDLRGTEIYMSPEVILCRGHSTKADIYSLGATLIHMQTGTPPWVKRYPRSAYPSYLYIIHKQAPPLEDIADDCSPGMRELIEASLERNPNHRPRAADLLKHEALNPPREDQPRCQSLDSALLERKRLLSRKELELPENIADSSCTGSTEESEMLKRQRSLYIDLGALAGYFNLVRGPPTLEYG
AURKA (human), sequence (O14965 whole entry, looked up): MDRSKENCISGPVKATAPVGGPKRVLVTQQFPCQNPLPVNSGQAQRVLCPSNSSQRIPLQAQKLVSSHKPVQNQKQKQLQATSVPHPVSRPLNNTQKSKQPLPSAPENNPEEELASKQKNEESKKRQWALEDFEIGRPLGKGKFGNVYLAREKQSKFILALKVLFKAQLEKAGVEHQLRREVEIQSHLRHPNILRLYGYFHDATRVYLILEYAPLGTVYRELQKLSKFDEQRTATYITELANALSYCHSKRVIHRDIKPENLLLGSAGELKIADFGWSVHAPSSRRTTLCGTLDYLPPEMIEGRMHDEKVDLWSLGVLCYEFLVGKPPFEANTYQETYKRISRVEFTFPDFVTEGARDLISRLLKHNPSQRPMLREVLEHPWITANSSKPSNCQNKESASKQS
PIM2 (human), sequence (Q9P1W9 whole entry, looked up): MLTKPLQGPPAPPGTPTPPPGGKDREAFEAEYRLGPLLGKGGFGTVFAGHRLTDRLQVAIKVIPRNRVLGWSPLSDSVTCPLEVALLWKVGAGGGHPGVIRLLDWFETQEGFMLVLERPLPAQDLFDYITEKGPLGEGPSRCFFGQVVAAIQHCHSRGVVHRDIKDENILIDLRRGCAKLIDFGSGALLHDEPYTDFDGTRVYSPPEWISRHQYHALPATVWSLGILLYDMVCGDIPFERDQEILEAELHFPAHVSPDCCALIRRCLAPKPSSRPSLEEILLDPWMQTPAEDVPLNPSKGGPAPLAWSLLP
MAPKAPK5 (human), sequence (Q8IW41 whole entry, looked up): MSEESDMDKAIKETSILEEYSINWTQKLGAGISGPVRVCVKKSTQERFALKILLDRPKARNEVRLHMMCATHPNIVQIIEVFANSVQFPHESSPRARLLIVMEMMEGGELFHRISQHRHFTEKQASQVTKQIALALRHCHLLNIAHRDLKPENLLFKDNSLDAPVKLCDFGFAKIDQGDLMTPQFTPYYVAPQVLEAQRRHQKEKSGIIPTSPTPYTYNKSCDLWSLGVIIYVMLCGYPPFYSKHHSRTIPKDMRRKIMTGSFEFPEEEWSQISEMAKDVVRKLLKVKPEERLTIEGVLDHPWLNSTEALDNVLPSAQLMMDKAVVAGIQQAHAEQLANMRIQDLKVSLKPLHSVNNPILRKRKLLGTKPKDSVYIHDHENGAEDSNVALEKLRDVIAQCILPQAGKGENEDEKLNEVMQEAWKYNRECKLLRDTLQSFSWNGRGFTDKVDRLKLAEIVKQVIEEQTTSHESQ
DAPK2 (human), sequence (Q9UIK4 whole entry, looked up): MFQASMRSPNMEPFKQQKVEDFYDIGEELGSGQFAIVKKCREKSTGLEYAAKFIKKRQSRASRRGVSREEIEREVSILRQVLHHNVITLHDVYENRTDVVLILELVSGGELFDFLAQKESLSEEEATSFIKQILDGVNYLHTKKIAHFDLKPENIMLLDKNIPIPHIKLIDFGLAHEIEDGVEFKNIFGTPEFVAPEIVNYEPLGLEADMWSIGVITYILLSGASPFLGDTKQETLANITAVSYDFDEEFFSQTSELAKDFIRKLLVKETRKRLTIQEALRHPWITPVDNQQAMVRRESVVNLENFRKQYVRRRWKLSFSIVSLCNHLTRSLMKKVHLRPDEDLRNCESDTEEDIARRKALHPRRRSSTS
CLK2 (human), sequence (P49760 whole entry, looked up): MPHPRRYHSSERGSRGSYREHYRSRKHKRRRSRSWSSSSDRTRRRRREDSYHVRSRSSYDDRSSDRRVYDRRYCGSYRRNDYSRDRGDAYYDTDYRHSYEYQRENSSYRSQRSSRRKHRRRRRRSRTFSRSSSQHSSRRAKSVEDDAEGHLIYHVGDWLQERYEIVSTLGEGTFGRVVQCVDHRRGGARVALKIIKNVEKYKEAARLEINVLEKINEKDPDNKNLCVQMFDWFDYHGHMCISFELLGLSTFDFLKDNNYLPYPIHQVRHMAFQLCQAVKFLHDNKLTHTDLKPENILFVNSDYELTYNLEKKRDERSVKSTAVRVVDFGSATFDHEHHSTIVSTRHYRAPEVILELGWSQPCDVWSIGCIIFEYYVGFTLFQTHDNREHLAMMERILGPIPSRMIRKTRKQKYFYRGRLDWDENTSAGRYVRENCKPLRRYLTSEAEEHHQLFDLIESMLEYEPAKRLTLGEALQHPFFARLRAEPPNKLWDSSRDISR
MAPK12 (human), sequence (P53778 whole entry, looked up): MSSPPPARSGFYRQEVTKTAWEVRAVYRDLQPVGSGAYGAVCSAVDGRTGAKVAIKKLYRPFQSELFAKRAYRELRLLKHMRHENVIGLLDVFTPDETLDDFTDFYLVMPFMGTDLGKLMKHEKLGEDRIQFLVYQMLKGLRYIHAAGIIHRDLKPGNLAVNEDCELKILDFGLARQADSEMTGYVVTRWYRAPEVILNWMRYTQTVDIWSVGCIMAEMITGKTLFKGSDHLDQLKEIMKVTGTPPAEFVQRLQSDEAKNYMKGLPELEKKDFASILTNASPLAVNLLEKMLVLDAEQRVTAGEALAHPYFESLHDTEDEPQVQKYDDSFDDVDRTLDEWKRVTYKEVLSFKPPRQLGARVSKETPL
ULK2 (human), sequence (Q8IYT8 whole entry, looked up): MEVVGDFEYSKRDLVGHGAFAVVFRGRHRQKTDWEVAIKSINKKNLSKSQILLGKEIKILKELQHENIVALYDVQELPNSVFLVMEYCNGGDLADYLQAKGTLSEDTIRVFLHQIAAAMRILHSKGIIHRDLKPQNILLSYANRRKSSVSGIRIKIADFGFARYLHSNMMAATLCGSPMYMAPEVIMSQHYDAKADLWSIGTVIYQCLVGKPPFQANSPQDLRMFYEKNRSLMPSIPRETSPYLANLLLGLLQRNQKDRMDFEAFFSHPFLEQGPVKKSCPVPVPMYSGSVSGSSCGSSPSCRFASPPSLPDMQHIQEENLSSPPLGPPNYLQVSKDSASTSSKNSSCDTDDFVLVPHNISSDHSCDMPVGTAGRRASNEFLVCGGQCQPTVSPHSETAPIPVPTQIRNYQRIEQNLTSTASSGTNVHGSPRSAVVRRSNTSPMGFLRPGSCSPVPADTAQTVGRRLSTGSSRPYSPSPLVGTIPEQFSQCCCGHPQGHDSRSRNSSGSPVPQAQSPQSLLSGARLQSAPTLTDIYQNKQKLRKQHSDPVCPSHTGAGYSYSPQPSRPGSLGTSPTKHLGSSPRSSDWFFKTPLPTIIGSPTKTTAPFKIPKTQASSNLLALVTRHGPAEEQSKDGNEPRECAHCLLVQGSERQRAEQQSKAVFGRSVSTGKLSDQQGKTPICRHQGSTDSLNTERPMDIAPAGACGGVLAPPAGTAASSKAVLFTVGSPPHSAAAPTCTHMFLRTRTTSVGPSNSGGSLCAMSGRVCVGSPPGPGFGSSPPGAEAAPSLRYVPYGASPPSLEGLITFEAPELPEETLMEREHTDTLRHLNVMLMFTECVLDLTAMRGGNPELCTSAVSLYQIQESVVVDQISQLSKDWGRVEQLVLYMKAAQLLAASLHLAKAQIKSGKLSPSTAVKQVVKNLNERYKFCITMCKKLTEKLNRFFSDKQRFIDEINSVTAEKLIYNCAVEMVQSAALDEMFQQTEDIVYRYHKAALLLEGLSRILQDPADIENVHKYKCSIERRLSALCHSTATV
PRKCB1 (human), sequence (P05771 whole entry, looked up): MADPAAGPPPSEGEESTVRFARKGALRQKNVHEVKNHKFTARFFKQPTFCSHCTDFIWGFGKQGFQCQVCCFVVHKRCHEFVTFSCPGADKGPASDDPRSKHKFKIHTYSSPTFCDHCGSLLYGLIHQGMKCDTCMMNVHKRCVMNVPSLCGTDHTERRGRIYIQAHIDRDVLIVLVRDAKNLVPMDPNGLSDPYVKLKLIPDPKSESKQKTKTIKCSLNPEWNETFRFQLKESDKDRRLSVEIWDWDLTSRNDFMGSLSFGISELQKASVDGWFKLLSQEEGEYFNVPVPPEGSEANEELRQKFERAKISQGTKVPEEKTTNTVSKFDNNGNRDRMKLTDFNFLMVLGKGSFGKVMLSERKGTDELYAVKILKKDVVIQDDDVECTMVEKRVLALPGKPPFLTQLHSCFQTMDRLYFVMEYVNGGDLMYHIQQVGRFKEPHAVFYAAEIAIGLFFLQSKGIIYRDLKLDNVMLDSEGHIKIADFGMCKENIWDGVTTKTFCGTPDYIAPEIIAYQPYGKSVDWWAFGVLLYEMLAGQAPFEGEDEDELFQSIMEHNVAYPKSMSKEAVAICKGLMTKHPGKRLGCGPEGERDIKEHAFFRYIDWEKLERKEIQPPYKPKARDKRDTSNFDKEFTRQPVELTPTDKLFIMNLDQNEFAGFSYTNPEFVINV
AURKB (human), sequence (Q96GD4 whole entry, looked up): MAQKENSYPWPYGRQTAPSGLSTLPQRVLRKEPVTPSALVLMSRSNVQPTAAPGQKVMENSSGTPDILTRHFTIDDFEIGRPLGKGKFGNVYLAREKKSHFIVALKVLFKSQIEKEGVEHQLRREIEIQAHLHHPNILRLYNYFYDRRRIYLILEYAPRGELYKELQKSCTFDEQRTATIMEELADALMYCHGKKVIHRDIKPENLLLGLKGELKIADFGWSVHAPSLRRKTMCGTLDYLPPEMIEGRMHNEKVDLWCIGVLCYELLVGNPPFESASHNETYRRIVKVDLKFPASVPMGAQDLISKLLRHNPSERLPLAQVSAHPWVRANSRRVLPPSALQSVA

residual activity (MARK1 (human)): 94.1%
residual activity (GRK6 (human)): 92.6%
residual activity (PRKCB1 (human)): 92.8%
residual activity (ULK2 (human)): 125%
residual activity (TBK1 (human)): 92.7%
residual activity (MAPK1 (human)): 80.7%
residual activity (FLT1 (human)): 76.9%
residual activity (PHKG2 (human)): 96.9%
residual activity (PLK2 (human)): 92.5%
residual activity (PDPK1 (human)): 102%
residual activity (PIM2 (human)): 110%
residual activity (TYRO3 (human)): 102%
residual activity (EPHB1 (human)): 94.5%
residual activity (RPS6KA1 KD1 KD2 (human)): 94.2%
residual activity (PLK1 (human)): 100%
residual activity (DAPK2 (human)): 87.6%
residual activity (AURKB (human)): 88.6%
residual activity (INSR (human)): 103%
residual activity (CLK2 (human)): 95.2%
residual activity (TSSK2 (human)): 92.1%
residual activity (GSK3A (human)): 105%
residual activity (PDGFRB (human)): 73.4%
residual activity (FYN (human)): 3.51%
residual activity (MUSK (human)): 115%
residual activity (JAK2 JH1 JH2 (human)): 104%
residual activity (MARK2 (human)): 86.4%
residual activity (PRKD3 (human)): 89.4%
residual activity (INSRR (human)): 81.9%
residual activity (PRKACA (human)): 100%
residual activity (MAPK14 (human)): 76.3%
residual activity (ERBB2 (human)): 101%
residual activity (MAPKAPK5 (human)): 98.7%
residual activity (MAPK12 (human)): 97.6%
residual activity (RPS6KB1 (human)): 104%
residual activity (FGFR1 (human)): 77.4%
residual activity (AURKA (human)): 76.5%
residual activity (PAK3 (human)): 98.4%
residual activity (MAPK13 (human)): 95.3%
residual activity (PRKCE (human)): 96%
residual activity (WNK2 (human)): 102%
residual activity (MAP3K8 (human)): 83.3%
residual activity (FGFR2 (human)): 78%
SMILES: Nc1ncnc2c1c(-c1ccc(Oc3ccccc3)cc1)cn2C1CCCC1

SMILES: O=C1NC(=O)c2c1c1c3ccccc3n3c1c1c2c2ccccc2n1C1CCC3O1
residual activity (MARK1 (human)): 10.4%
residual activity (GRK6 (human)): 55.6%
residual activity (PRKCB1 (human)): 22.5%
residual activity (ULK2 (human)): 89.1%
residual activity (TBK1 (human)): 7.4%
residual activity (MAPK1 (human)): 88.7%
residual activity (FLT1 (human)): 13.3%
residual activity (PHKG2 (human)): 75.6%
residual activity (PLK2 (human)): 62.4%
residual activity (PDPK1 (human)): 10.6%
residual activity (PIM2 (human)): 1.86%
residual activity (TYRO3 (human)): 55.3%
residual activity (EPHB1 (human)): 80.2%
residual activity (RPS6KA1 KD1 KD2 (human)): 1.58%
residual activity (PLK1 (human)): 50.2%
residual activity (DAPK2 (human)): 39.4%
residual activity (AURKB (human)): 9.52%
residual activity (INSR (human)): 17.2%
residual activity (CLK2 (human)): 52.1%
residual activity (TSSK2 (human)): 87.1%
residual activity (GSK3A (human)): 2.19%
residual activity (PDGFRB (human)): 19.1%
residual activity (FYN (human)): 59.9%
residual activity (MUSK (human)): 25.8%
residual activity (JAK2 JH1 JH2 (human)): 14.2%
residual activity (MARK2 (human)): 4.88%
residual activity (PRKD3 (human)): -0.0451%
residual activity (INSRR (human)): 7.16%
residual activity (PRKACA (human)): 44.7%
residual activity (MAPK14 (human)): 102%
residual activity (ERBB2 (human)): 98.4%
residual activity (MAPKAPK5 (human)): 80.4%
residual activity (MAPK12 (human)): 113%
residual activity (RPS6KB1 (human)): 2.38%
residual activity (FGFR1 (human)): 29.1%
residual activity (AURKA (human)): 22.3%
residual activity (PAK3 (human)): 41.7%
residual activity (MAPK13 (human)): 114%
residual activity (PRKCE (human)): 28.4%
residual activity (WNK2 (human)): 93.6%
residual activity (MAP3K8 (human)): 94.6%
residual activity (FGFR2 (human)): 34.1%

SMILES: Nc1ccc2ncnc(NCCc3ccc(Oc4ccccc4)cc3)c2c1
residual activity (MARK1 (human)): 103%
residual activity (GRK6 (human)): 99.3%
residual activity (PRKCB1 (human)): 96.3%
residual activity (ULK2 (human)): 103%
residual activity (TBK1 (human)): 100%
residual activity (MAPK1 (human)): 90.1%
residual activity (FLT1 (human)): 96%
residual activity (PHKG2 (human)): 98.7%
residual activity (PLK2 (human)): 102%
residual activity (PDPK1 (human)): 105%
residual activity (PIM2 (human)): 119%
residual activity (TYRO3 (human)): 101%
residual activity (EPHB1 (human)): 97.9%
residual activity (RPS6KA1 KD1 KD2 (human)): 108%
residual activity (PLK1 (human)): 91.1%
residual activity (DAPK2 (human)): 80.4%
residual activity (AURKB (human)): 99.1%
residual activity (INSR (human)): 103%
residual activity (CLK2 (human)): 83%
residual activity (TSSK2 (human)): 94.5%
residual activity (GSK3A (human)): 110%
residual activity (PDGFRB (human)): 105%
residual activity (FYN (human)): 103%
residual activity (MUSK (human)): 102%
residual activity (JAK2 JH1 JH2 (human)): 103%
residual activity (MARK2 (human)): 84.9%
residual activity (PRKD3 (human)): 98.1%
residual activity (INSRR (human)): 98.7%
residual activity (PRKACA (human)): 88.6%
residual activity (MAPK14 (human)): 95.7%
residual activity (ERBB2 (human)): 108%
residual activity (MAPKAPK5 (human)): 101%
residual activity (MAPK12 (human)): 93.6%
residual activity (RPS6KB1 (human)): 99.5%
residual activity (FGFR1 (human)): 86.3%
residual activity (AURKA (human)): 105%
residual activity (PAK3 (human)): 102%
residual activity (MAPK13 (human)): 100%
residual activity (PRKCE (human)): 109%
residual activity (WNK2 (human)): 96.7%
residual activity (MAP3K8 (human)): 97.2%
residual activity (FGFR2 (human)): 95.5%

SMILES: Cc1ccc(S(=O)(=O)/C=C/C#N)cc1
residual activity (MARK1 (human)): 102%
residual activity (GRK6 (human)): 112%
residual activity (PRKCB1 (human)): 101%
residual activity (ULK2 (human)): 110%
residual activity (TBK1 (human)): 83.9%
residual activity (MAPK1 (human)): 100%
residual activity (FLT1 (human)): 92.8%
residual activity (PHKG2 (human)): 109%
residual activity (PLK2 (human)): 103%
residual activity (PDPK1 (human)): 102%
residual activity (PIM2 (human)): 103%
residual activity (TYRO3 (human)): 99.8%
residual activity (EPHB1 (human)): 100%
residual activity (RPS6KA1 KD1 KD2 (human)): 91.6%
residual activity (PLK1 (human)): 110%
residual activity (DAPK2 (human)): 100%
residual activity (AURKB (human)): 92.3%
residual activity (INSR (human)): 108%
residual activity (CLK2 (human)): 103%
residual activity (TSSK2 (human)): 103%
residual activity (GSK3A (human)): 106%
residual activity (PDGFRB (human)): 103%
residual activity (FYN (human)): 95.4%
residual activity (MUSK (human)): 107%
residual activity (JAK2 JH1 JH2 (human)): 99.5%
residual activity (MARK2 (human)): 84%
residual activity (PRKD3 (human)): 96.1%
residual activity (INSRR (human)): 98%
residual activity (PRKACA (human)): 100%
residual activity (MAPK14 (human)): 97.4%
residual activity (ERBB2 (human)): 94.2%
residual activity (MAPKAPK5 (human)): 88.9%
residual activity (MAPK12 (human)): 90.5%
residual activity (RPS6KB1 (human)): 105%
residual activity (FGFR1 (human)): 106%
residual activity (AURKA (human)): 111%
residual activity (PAK3 (human)): 105%
residual activity (MAPK13 (human)): 92.2%
residual activity (PRKCE (human)): 106%
residual activity (WNK2 (human)): 124%
residual activity (MAP3K8 (human)): 96.2%
residual activity (FGFR2 (human)): 102%
